Consider 15 compounds from patent publication US7179808B2 (Janssen Pharmaceutica N.V., priority 2002, dated 2007).

Counter-ions that a name gives are not always drawn.

In data set [1] the target is T1, NADPH-oxidase (Homo sapiens, UniProt P04839).
T1 construct: endogenous in cells; host or cells: human neutrophils isolated from the buffy coat of one unit of blood
T1 sequence (P04839 1-570): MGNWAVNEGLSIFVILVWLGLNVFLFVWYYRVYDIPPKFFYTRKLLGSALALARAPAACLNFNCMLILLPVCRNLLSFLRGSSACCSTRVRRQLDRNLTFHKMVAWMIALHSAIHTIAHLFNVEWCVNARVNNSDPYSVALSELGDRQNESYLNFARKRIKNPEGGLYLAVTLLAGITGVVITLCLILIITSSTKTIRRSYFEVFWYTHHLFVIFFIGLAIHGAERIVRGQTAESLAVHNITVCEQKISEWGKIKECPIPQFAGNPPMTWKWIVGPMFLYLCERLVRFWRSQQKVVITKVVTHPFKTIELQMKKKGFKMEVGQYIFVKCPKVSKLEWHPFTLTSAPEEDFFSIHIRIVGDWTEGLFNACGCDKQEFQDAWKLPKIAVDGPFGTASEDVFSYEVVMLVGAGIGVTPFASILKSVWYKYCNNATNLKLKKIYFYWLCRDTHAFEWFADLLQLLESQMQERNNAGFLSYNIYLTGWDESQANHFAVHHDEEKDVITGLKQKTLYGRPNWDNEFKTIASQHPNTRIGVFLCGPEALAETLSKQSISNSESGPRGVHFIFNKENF
T1 sequence (P13498 1-195 partner): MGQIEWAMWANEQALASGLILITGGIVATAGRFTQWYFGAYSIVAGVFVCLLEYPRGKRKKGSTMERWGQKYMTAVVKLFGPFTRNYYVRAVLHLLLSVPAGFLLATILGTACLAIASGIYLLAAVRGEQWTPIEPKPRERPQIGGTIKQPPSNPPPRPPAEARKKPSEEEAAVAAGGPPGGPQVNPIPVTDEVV
Briefly: Oxidase Inhibition Assay (PMA-stimulated superoxide-mediated reduction of Cytochrome c, absorbance at 550 nm). Particulars: for IC50: human neutrophils, 0.5 μM PMA, Cytochrome c reduction at 550 nm. The format is cell-based. The protocol: Whole cells (human neutrophils) are incubated with a pro-inflammatory agonist phorbol myristate acetate (PMA) in the presence or absence of test compound to measure the superoxide-mediated reduction of Cytochrome c at 550 nm. Inhibition of the oxidase is determined by a decreased absorbance at 550 nm, in response to test compound, relative to the absorbance seen with a vehicle control.
The buffy coat from one unit of blood is split evenly into four 50 mL tubes. To each tube 30 mL 3% Dextran (in 0.9% NaCl) is added and the tubes are inverted to mix. Tubes are allowed to sit undisturbed for 25 minutes. The resulting supernatant is recovered into four fresh tubes and centrifuged for 10 minutes at 600×g, 4° C. The supernatant is discarded and pellets are resuspended in 35 mL 0.9% saline. 10 mL Ficoll-Paque PLUS (Pharmacia Biotech AB) is layered beneath the cell suspension and centrifuged at 600×g for 40 minutes at room temperature. The supernatant is again discarded and tubes are tapped to loosen the resulting pellets. 20 mL 0.2% ice cold saline is added for 30 seconds followed by 20 mL 1.6% ice cold saline to lyse the remaining erythrocytes in the pellets. The pellets are centrifuged for 10 minutes at 600×g, 4° C., and the supernatant is discarded. The neutrophil pellets are resuspended in HBSS-glucose buffer (1 mg/mL), adding 2.5 mL to each tube for a total volume of 10 mL. The cell suspension is then counted on a hemocytometer.
The cell suspension is diluted to a concentration of 5×10^6/mL in HBSS-glucose and treated with 1 μg/mL Cytochalasin B (5 mg/mL DMSO) for 10 minutes at 37° C. in a shaking water bath. Cells are diluted to 6×10^5 cells/mL in 92 μM Cytochrome c for a final concentration of 5×10^4 cells/well.
The NADPH-oxidase assay is run on a Biomek 2000 workstation. The workstation adds 2.5 μl compound per well from source plates plus 12.5 μL per well 4 μM PMA (agonist). This volume is brought up to 100 μL total per well in the assay plates upon the addition of the prepared cells (85 μL). The final concentration of drug is 25 μM and PMA is 0.5 μM under these conditions.
The QC curve is a dose-responsive curve (from about 31.25 nM to about 4000 nM) for competitive binding against a known oxidase inhibitor such as DPI (diphenylene iodonium chloride). The following format was used for each compound tested:
The plates are incubated for 1 hour at 37° C. without CO2. The plates are then incubated at room temperature for 30 minutes and the absorbance is read at 550 nm.

The test system of data set [2] is mice with potassium peroxochromate arthritis. Particulars: cited from earlier work.
For data set [3], the system named is ROS. Particulars: human patients with rheumatoid arthritis and osteoarthritis, pharmacological doses; cited from earlier work.

What is called IC50 is the concentration that inhibits the measured activity by half. Low readings indicate greater potency in that assay, high ones weaker potency in that assay. For `COc1ccc2[nH]cc(CCNCc3cccc(OCc4nc(-c5ccc(Cl)cc5)cs4)c3)c2c1` [Cpd 9, N-[[3-[[4-(4-chlorophenyl)-2-thiazolyl]methoxy]phenyl]methyl]-5-methoxy-1H-indole-3-ethanamine.HCl], in data set [1], the IC50 worked out at 300 nM.
The same measure, in the same setting: next, `CN1CCCC1CNCc1cccc(OCc2nc(-c3ccc(Cl)cc3)cs2)c1` (centres unmarked) [Cpd 6, N-[[3-[[4-(4-chlorophenyl)-2-thiazolyl]methoxy]phenyl]methyl]-1-methyl-2-pyrrolidinemethanamine.(HCl)2]: 10000 nM.
The term melting point denotes the temperature of the solid-liquid transition. For the compound `CCCNCc1cccc(OCc2nc(-c3ccc(Cl)cc3)cs2)c1` [Cpd 1, 3-[[4-(4-chlorophenyl)-2-thiazolyl]methoxy]-N-propyl-benzenemethanamine], the melting point lay within 63.5 to 64.5 °C. The IC50 in data set [1] worked out at 1650 nM.
For `Clc1ccc(-c2csc(COc3cccc(CNC4CC4)c3)n2)cc1` [Cpd 5, 3-[[4-(4-chlorophenyl)-2-thiazolyl]methoxy]-N-cyclopropyl-benzenemethanamine], in that order: 80.5 to 81.5 °C and 3450 nM.
For the compound `CC(C)CNCc1cccc(OCc2nc(-c3ccc(Cl)cc3)cs2)c1`, in data set [1], the IC50 amounted to 2500 nM.
The term inhibition denotes the relative decrease from the control value, in per cent. Low values mean a response near the control, high ones a response far below the control. On to `c1ccc2c(c1)[I+]c1ccccc1-2` [DPI, diphenylene iodoniumchloride], for which the “inhibition of the arthritis” value in data set [2] (10 mmol/kg) is “Complete inhibition”. Besides, the inhibited the arthritis in data set [2] (daily doses of 2.8 μmol/kg) was 50%. In addition, in data set [1] (QC wells G–H, 2.5 μL of 10 μM DPI, at 250 nm (so in the source), agonist added), the inhibition at 10 µM was ~70%.
On to `Clc1ccc(-c2csc(COc3cccc(CNC4CCCC4)c3)n2)cc1` [Cpd 3, 3-[[4-(4-chlorophenyl)-2-thiazolyl]methoxy]-N-cyclopentyl-benzenemethanamine], for which the melting point fell in the range of 94 to 94.5 °C. This compound displayed a half-maximal inhibitory concentration (IC50) in data set [1] of 40 nM.
`Clc1ccc(-c2csc(COc3ccc(CNC4CCCC4)cc3)n2)cc1` [Cpd 10, 4-[[4-(4-chlorophenyl)-2-thiazolyl]methoxy]-N-cyclopentyl-benzenemethanamine] returned a melting point of 125.5 to 126.5 °C. Moreover, in data set [1], the 50% inhibitory concentration (IC50) came to 700 nM.
Take `Clc1ccc(-c2csc(COc3cccc(CNC4CCCCC4)c3)n2)cc1` [Cpd 4, 3-[[4-(4-chlorophenyl)-2-thiazolyl]methoxy]-N-cyclohexyl-benzenemethanamine]: the melting point was in the range of 85 to 86 °C. This compound also had an IC50 in data set [1] of 130 nM.
For `CN1C(C(=O)Nc2ccccn2)=C(O)c2ccccc2S1(=O)=O` [Piroxicam], the “reduce levels of ROS” value in data set [3] is 25%.
`Clc1ccc(-c2csc(COc3cccc(CNCCN4CCOCC4)c3)n2)cc1` [Cpd 7] had an IC50 in data set [1] of 1470 nM.
`NCc1cccc(OCc2nc(-c3ccc(Cl)cc3)cs2)c1` [Cpd 11, 3-[[4-(4-chlorophenyl)-2-thiazolyl]methoxy]-benzenemethanamine] came in with a melting point of 117 to 118.5 °C. Also, the concentration for half-maximal inhibition (IC50) in data set [1] was 1900 nM.
Regarding `CCCCNCc1cccc(OCc2nc(-c3ccc(Cl)cc3)cs2)c1` [Cpd 2, 3-[[4-(4-chlorophenyl)-2-thiazolyl]methoxy]-N-(3-methylpropyl)-benzenemethanamine], the melting point fell in the range of 86 to 88 °C.
On to “4-(4-chlorophenyl)-2-[[3-[(5-methyl-2-furanyl)methyl]phenoxy]methyl]-thiazole [Cpd 8]”, for which the half-maximal inhibitory concentration (IC50) in data set [1] turned out to be 700 nM.
Take `CCCNCc1ccc(OCc2nc(-c3ccc(Cl)cc3)cs2)cc1` [Cpd 1a, 4-[[4-(4-chlorophenyl)-2-thiazolyl]methoxy]-N-propyl-benzenemethanamine]: the melting point was in the range of 63.5 to 64.5 °C.
